Literature values as cited in patent publication US12478612B2 (CinDome Pharma, Inc., priority 2017, dated 2025).
Where two headings read alike, the source gives them in different places.

What was measured:
[1] = tested on: Human plasma protein
[2] = weak base

Row | pKa [2] | Compound | Human plasma protein binding ([1]; 10 ng/ml tritiated domperidone) [%] | Human plasma protein binding ([1]; 100 ng/ml tritiated domperidone) [%]
1 |  | 5-chloro-1-(1-[3-(2-oxo-2,3-dihydro-1H-benzo[d]imidazol-1-yl)propyl]piperidin-4-yl)-1H-benzo[d]imidazol-2(3H)-one [Domperidone] | 91.7 | 93.0
2 | 7.89 | O=c1[nH]c2ccccc2n1CCCN1CCC(n2c(=O)[nH]c3cc(Cl)ccc32)CC1 [Domperidone, 5-chloro-1-(1-[3-(2-oxo-2,3-dihydro-1H-benzo[d]imidazol-1-yl)propyl]piperidin-4-yl)-1H-benzo[d]imidazol-2(3H)-one] |  | 
